{"source": "patent US5677285A", "about": "“Derivatives of neuraminic acid” (Fidia S.P.A., priority 1992, dated 1997)", "key": {"neonatal rats": {"tested_on": "neonatal rats", "experiment": "Cerebral damage induced by icv injection of N-methyl-D-aspartate, total brain weight", "assay_type": "in vivo", "conditions": "for Total brain weight: NMDA 25 nmoles icv, 1 hour before and immediately after NMDA, day 12", "description": "Experiments were performed on 7 day old neonatal rats weighing ca. 13 grams. […] The excitotoxin was solubilized in saline, and the pH was brought to 7.4 by adding 1N NaOH. The NMDA injection (25 nmoles/μl) was performed slowly (2 minutes) at the level of the right lateral ventricle utilizing a Hamilton syringe. Saline was administered to control animals (1 μl icv).\nThe compound was administered subcutaneously (sc) after suspension in 1% DMSO (experiment No. 1) or in 0.5% tragacanth (experiment No. 2). The compound was tested at the following doses: 1-3-5 mg/kg sc.\nThe treatment was conducted performing two administrations:\n1 hour before NMDA injection;\nimmediately after NMDA injection.\nThe number of animals utilized in each experimental group (corresponding to the total number of animals, i.e., experiment 1+experiment 2, according to Table 3) is indicated in brackets.\nAnimals were sacrificed on the 12th day (i.e., 5 days after NMDA injection) for the evaluation of the in toto brain weight, defined in mg.\nThe statistical significance was evaluated using Dunnett's test."}, "[1]": {"tested_on": "C1300 mouse neuroblastoma cells, Neuro-2a clone", "experiment": "Neuritogenic activity (cells with neurites, optical microscopy)", "assay_type": "cell-based", "description": "C1300 mouse neuroblastoma cells, Neuro-2a clone, (American Cell Type Culture Collection, Bethesda, Md.) were grown at a density of 10,000 cells/well in a culture medium containing Dulbecco's modified Eagle medium (DMEM, Flow), 10% fetal calf serum (FCS, batch IP 02, Seromed), penicillin (100 units per ml, Irvine), and L-glutamine (2 mM, Sigma). Cells were incubated at 37° C. for 24 hours, and medium was removed and substituted with 350 μl of fresh medium plus compounds to be tested.\nTested Compounds and Their Solubilization\nCompounds ND35 and ND37 were solubilized at a concentration of 1×10^-2 M in dimethylsulfoxide (1% DMSO). For the different compounds, progressive dilutions in culture medium were performed (concentrations from 1×10^-5 to 1×10^-4 M).\nNeuritogenic activity (cell number with neurites, optical microscopy)\nCulture plates were incubated with compounds to be tested and analyzed using a phase contrast microscope (250×). Nine fields with prefixed coordinates were chosen and photographed. Then the total number of cells and those with neurites (length at least double the cell diameter) were counted in blind in each photograph. The percentage of cells with neurites was determined after counting of at least 100 cells (Facci L. et al.: Promotion of neuritogenesis in mouse neuroblastoma cells by exogenous ganglioside GM1. J. Neurochem. Raven Press, New York, 299-305,1984)."}, "cerebellar granule cells": {"tested_on": "cerebellar granule cells", "experiment": "Protective effect on exogenous glutamate induced neurotoxicity, pretreatment, MTT test", "assay_type": "cell-based, Sprague-Dawley rats", "conditions": "glutamate 100 μM, 2 hours pretreatment", "experimental": "Primary cell cultures of cerebellar granule Cells were prepared from 6 day old Sprague-Dawley rats. Neurons were grown in 35 mm plates for 11-13 days and maintained in a humid environment (95% air and 5% CO2). Cultures (3×10^6 cells/plate) are mainly formed by granule cells (95%) with a small amount (5%) of glial cells (Gallo V. et al.: Selective release of glutamate from cerebellar granule cells differentiating in culture. Proc. Natl. Acad. Sci. USA 79, 7919-23, 1982). Glial proliferation was prevented by arabinofuranoside cytosine.\nDerivative ND37 was solubilized at a concentration of 1×10^-2 M in dimethylsulfoxide (1% DMSO) and then diluted at various concentrations in Locke's solution (154 mM NaCl/1/5.6 mM KCl/3.6 mM NaHCO3 /2.3 mM CaCl2 /1 mM MgCl2 /5.6 mM glucose/5 mM HEPES, pH 7.4). The following concentrations were tested: 5×10^-6 M, 1×10^-5 M, and 2×10^-5 M.\nThe cell culture medium was aspirated from the plates (and correctly maintained). Plates were washed (3×2 ml) with Locke's solution, and solutions (1.5 ml) containing the compound to be tested (concentrations from 5×10^-6 M to 2×10^-5 M) were added and incubated for 2 hours in an incubator at 37° C. (5% CO2).\nTreated cells were washed (3×2 ml) with Locke's solution+10% fetal calf serum, then washed (3×2 ml) with Locke's solution without Mg^++. 100 μM glutamate (1.5 ml) in Locke's solution (-Mg^++) or culture medium (controls) were added. Incubation with glutamate was performed for 15 minutes at room temperature (27° C.). Glutamate was removed, the plates were washed with Locke's solution (2×2 ml), and then incubated in presence of the starting medium (correctly maintained) for 24 hours at 37° C. in an incubator (5% C2 O). At the end of the incubation, cellular viability was assayed via quantification by the MTT colorimetric test (Mosmann T.: Rapid colorimetric assay for cellular growth and survival: application to proliferation and cytotoxicity assays. J. Immunol. Meth. 65, 55: 63, 1983 and modified according to Skaper S. D. et al.: Death of cultured hippocampal pyramidal neurons induced by pathological activation of N-methyl-D-aspartate receptors is reduced by monosialogangliosides. J. Pharm. Exp. Ter. 259,1 452-457, 1991). Data are expressed as % survival. The significance was calculated according to the Dunnett test."}}}
{"smiles": "CCCCCCCCCCCCCCCC(=O)NC1C(O)CC(OCC)(C(=O)N(C)C)OC1C(O)C(O)CO", "note": "(stereo not drawn) [ND37, β-2-O-ethylglycoside of the dimethylamide of N-palmitoylneuraminic acid]", "values": [{"measurement": "efficacy against NMDA brain damage", "setting": "neonatal rats; 1 mg/kg sc, p<0.01", "value": "significatively effective"}, {"measurement": "reduction of brain damage induced by the excitotoxin (lowering of total brain weight)", "setting": "neonatal rats; 1-3-5 mg/kg sc", "value": "effective in reducing the brain damage"}, {"measurement": "Total brain weight", "setting": "neonatal rats; Experiment n.1 (vehicle = DMSO 1%), 1 mg/kg sc", "value": 960, "unit": "mg"}, {"measurement": "Total brain weight", "setting": "neonatal rats; Experiment n.1 (vehicle = DMSO 1%), 3 mg/kg sc", "value": 968, "unit": "mg"}, {"measurement": "Total brain weight", "setting": "neonatal rats; Experiment n.1 (vehicle = DMSO 1%), 5 mg/kg sc", "value": 959, "unit": "mg"}, {"measurement": "Total brain weight", "setting": "neonatal rats; Experiment n.2 (0.5% tragacanth), 1 mg/kg sc", "value": 1019, "unit": "mg"}, {"measurement": "Total brain weight", "setting": "neonatal rats; Experiment n.2 (0.5% tragacanth), 3 mg/kg sc", "value": 977, "unit": "mg"}, {"measurement": "Total brain weight", "setting": "neonatal rats; Experiment n.2 (0.5% tragacanth), 5 mg/kg sc", "value": 976, "unit": "mg"}, {"measurement": "Cells with neurities (%)", "setting": "[1]; 1 × 10^-4 M", "value": "48 ± 9", "unit": "%"}, {"measurement": "Cells with neurities (%)", "setting": "[1]; 1 × 10^-5 M", "value": "5 ± 3", "unit": "%"}, {"measurement": "neuritogenesis in vitro", "setting": "[1]; 1×10^-5 to 1×10^-4 M", "value": "induce neuritogenesis"}, {"measurement": "Cells with neurities (%)", "setting": "[1]; 2.5 × 10^-5 M", "value": "8 ± 4", "unit": "%"}, {"measurement": "Cells with neurities (%)", "setting": "[1]; 5 × 10^-5 M", "value": "27 ± 5", "unit": "%"}, {"measurement": "viability at 10 µM", "setting": "cerebellar granule cells; Rattus norvegicus, ND37 1 × 10^-5 M, read-out: % survival", "value": "~63", "unit": "%"}, {"measurement": "viability at 20 µM", "setting": "cerebellar granule cells; Rattus norvegicus, ND37 2 × 10^-5 M, read-out: % survival", "value": "~83", "unit": "%"}, {"measurement": "viability at 5 µM", "setting": "cerebellar granule cells; Rattus norvegicus, ND37 5 × 10^-6 M, read-out: % survival", "value": "37 ± 5", "unit": "%"}, {"measurement": "MTT values", "setting": "cerebellar granule cells; ND37 1 × 10^-5 M", "value": "0.123 ± 0.006"}, {"measurement": "MTT values", "setting": "cerebellar granule cells; ND37 2 × 10^-5 M", "value": "0.326 ± 0.016"}, {"measurement": "MTT values", "setting": "cerebellar granule cells; ND37 5 × 10^-6 M", "value": "0.110 ± 0.015"}]}
